Molecular target: T1, CRTh2 receptor (Homo sapiens, UniProt Q9Y5Y4)
T1 construct: expressed in transfected cells
T1 sequence (Q9Y5Y4 1-395): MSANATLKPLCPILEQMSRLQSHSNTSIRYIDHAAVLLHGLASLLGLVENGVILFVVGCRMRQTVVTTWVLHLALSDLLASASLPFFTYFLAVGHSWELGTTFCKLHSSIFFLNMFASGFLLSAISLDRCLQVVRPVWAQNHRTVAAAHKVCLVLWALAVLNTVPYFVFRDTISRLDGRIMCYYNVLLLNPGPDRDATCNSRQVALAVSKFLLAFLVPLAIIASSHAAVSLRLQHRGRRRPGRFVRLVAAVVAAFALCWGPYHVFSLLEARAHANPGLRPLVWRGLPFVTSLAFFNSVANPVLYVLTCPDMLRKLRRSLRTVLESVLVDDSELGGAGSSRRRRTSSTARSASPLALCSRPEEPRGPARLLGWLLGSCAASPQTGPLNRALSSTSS
Assay: Intracellular calcium mobilisation (FLIPr, fluo-3AM), inhibition of the response to PGD2 in HEK-hrCRTh2-Gα16 cells
Format: cell-based
Conditions: antagonist affinity vs PGD2, pIC50 Cheng-Prusoff analysis, read-out: pA2 (converted)
Experimental: Pharmacological Data—Intracellular Calcium Mobilisation
Human Embryonic Kidney Cells co-transfected with both the CRTh2 receptor and […] G-protein (HEK-hrCRTh2-G[…]16) are routinely cultured as monolayers in Dulbecco's Modified Eagles Medium (DMEM; Sigma) supplemented with 10% (v:v) heat inactivated foetal bovine serum (New Zealand sourced; Hyclone), 1% (v:v) non-essential amino acids (Gibco BRL), 1% (v:v) penicillin/streptomycin (Gibco BRL), 2 mM L-glutamine (Gibco BRL) and grown under 1 mg/ml […] Geneticin (Gibco BRL) antibiotic selection. Approximately 24 hours prior to the assay the cells are plated at a seeding density of 100,000 cells/well in 100 µl growth media into black walled 96 well Poly-D-Lysine coated plates (Becton Dickinson), with clear bottoms to allow cell inspection and fluorescence measurements from the bottom of each well. All cultures are maintained under standard tissue culture conditions (37° C. in a humidified atmosphere of 5% CO2).
To enable changes in intracellular calcium levels to be measured in HEK-hrCRTh2-Gα16 cells fluo-3AM is utilised as the fluorescent calcium indicator. A dye loading buffer is prepared which consists of a final concentration of 5 µM Fluo-3AM fluorescent cytoplasmic calcium indicator dye (Tef Labs), 2.2 µl/ml Pluronic F127 (Molecular Probes) to promote dye uptake, and 0.5 mM brilliant black (Sigma) to reduce background fluorescence in Balanced Salt Solution (BSS; 125 mM NaCl, 5.4 mM KCl, 16.2 mM NaHCO3, 0.8 mM MgCl2, 1 mM CaCl2, 20 mM HEPES, 1 mM NaH2PO4, 5.5 mM D-(+)-Glucose, 0.1% BSA and pH 7.4 with NaOH). […]
Test compounds are made up at a stock concentration of 10 mM in DMSO. The compounds to be evaluated are then prepared, by serial dilution in BSS buffer, to the required concentrations for inhibition dose response curves to be constructed. […] This allows the potency agonist (p[A]50) value to be determined for the HEK-hrCRTh2-Gα16 cells on any given day. Once the p[A]50 for PGD2 has been determined a separate assay plate containing 2×p[A]50 of PGD2 is prepared as the 2nd addition plate (or agonist plate). […]

| Kb | Structure (SMILES) |
| --- | --- |
| 1000 nM | COc1ccc2c(c1)c(CC(=O)O)c(C)n2-c1ncnc2c(Cl)cc(Cl)cc12 [1-(6,8-dichloro-4-quinazolinyl)-5-methoxy-2-methyl-1H-indole-3-acetic acid] |
| 1580 nM | Cc1c(CC(=O)O)c2ccccc2n1-c1ncnc2cc(Cl)ccc12 [1-(7-chloro-4-quinazolinyl)-2-methyl-1H-indole-3-acetic acid] |
| 158 nM | Cc1c(CC(=O)O)c2cc(C(C)C)ccc2n1-c1ncnc2cc(Cl)ccc12 [1-(7-chloro-4-quinazolinyl)-2-methyl-5-(1-methylethyl)-1H-indole-3-acetic acid] |

Source: patent US20050165033A1, “Use of indole-3-acetic acids in the treatment of asthma, copd and other diseases” (priority 2002, published 2005)
